Results reported in patent US9512144B2, “Imidazothiazole sufonamides as nematicides” (BAYER CROPSCIENCE AKTIENGESELLSCHAFT, priority 2013, dated 2016).

Key:
Meloidogyne incognita [1] = assay: Meloidogyne incognita test (MELGIN): sand, salad seeds, gall formation after 14 days; assay type: in vivo; details: application rate 20 ppm, salad seedlings in sand
Procedure: Solvent: 125.0 parts by weight of acetone To produce a suitable preparation of active compound, 1 part by weight of active compound is mixed with the stated amount of solvent, and the concentrate is diluted with water to the desired concentration. Vessels are filled with sand, a solution of the active ingredient, a suspension containing eggs and larvae of the southern root-knot nematode (Meloidogyne incognita) and salad seeds. The salad seeds germinate and the seedlings grow. Galls develop in the roots. After 14 days the nematicidal activity is determined on the basis of the percentage of gall formation. 100% means that no galls were found; 0% means that the number of galls found on the roots of the treated plants was equal to that in untreated control plants.

Meloidogyne incognita [2] = assay: Meloidogyne incognita test: compound solution poured into pots with soil (loamy sand), salad seeds, gall formation after 21 days; assay type: in vivo; details: salad in soil
Procedure: Solvent: 7 parts by weight of dimethylformamide Emulsifier: 2.5 parts by weight of alkylarylpolyglycolether To produce a suitable preparation of active compound, 1 part by weight of active compound is mixed with the stated amount of solvent and emulsifier and is diluted with water to the desired concentration. In the calculation of the concentration the soil volume has to be included. […] Further test concentrations are prepared by dilution with water. The compound solution is poured into pots filled with soil (loamy sand). A suspension containing eggs and larvae of the southern root-knot nematode (Meloidogyne incognita) is added, salad seeds are spread on the soil surface and covered with quartz sand. The salad seeds germinate and the seedlings grow. Galls develop on the roots. After 21 days the nematicidal activity is determined on the basis of the percentage of gall formation. 100% means no galls were found; 0% means the number of galls found on the roots of the treated plants was equal to that in untreated control plants.

Row | Structure (SMILES) | nematicidal activity on the basis of the percentage of gall formation (100% = no galls) (Meloidogyne incognita [1]) [%] | nematicidal activity on the basis of the percentage of gall formation (100% = no galls) (Meloidogyne incognita [2]; application rate 4 ppm) [%] | nematicidal activity on the basis of the percentage of gall formation (100% = no galls) (Meloidogyne incognita [2]; application rate 8 ppm) [%] | nematicidal activity on the basis of the percentage of gall formation (100% = no galls) (Meloidogyne incognita [2]; application rate 2 ppm) [%] | nematicidal activity on the basis of the percentage of gall formation (100% = no galls) (Meloidogyne incognita [2]; application rate 1 ppm) [%]
1 | CCCOc1ccc(Cl)c(S(=O)(=O)NC(=O)c2cn3cc(C(F)(F)F)sc3n2)c1 [Example I-1-207] | 100 | 95 |  |  | 
2 | Cc1c(C(F)(F)C(F)(F)F)sc2nc(C(=O)NS(=O)(=O)c3ccccc3Cl)cn12 [Example I-1-255] | 100 |  | 100 |  | 
3 | O=C(NS(=O)(=O)c1c(F)cccc1F)c1cn2cc(C(F)(F)C(F)(F)F)sc2n1 [Example I-1-222] | 100 |  | 90 |  | 
4 | O=C(NS(=O)(=O)c1c(Cl)cccc1Cl)c1cn2cc(C(F)(F)C(F)(F)F)sc2n1 [Example I-1-146] | 100 |  | 90 |  | 
5 | COc1ccc(F)c(S(=O)(=O)NC(=O)c2cn3cc(C(F)(F)F)sc3n2)c1 [Example I-1-27] | 100 |  |  | 80 | 
6 | Cc1ccc(C)c(S(=O)(=O)NC(=O)c2cn3c(C)c(C(F)(F)F)sc3n2)c1 [Example I-1-291] | 100 | 85 |  |  | 
7 | O=C(NS(=O)(=O)c1c(Cl)cccc1Cl)c1cn2cc(C(F)(F)F)sc2n1 [Example I-1-10] | 100 |  | 98 |  | 
8 | Cc1c(C(F)(F)C(F)(F)F)sc2nc(C(=O)NS(=O)(=O)c3c(F)cccc3F)cn12 [Example I-1-252] | 90 |  | 95 |  | 
9 | O=C(NS(=O)(=O)c1cc(C(F)(F)F)ccc1Br)c1cn2cc(C(F)(F)F)sc2n1 [Example I-1-5] | 100 | 90 |  |  | 
10 | Cc1c(C(F)(F)F)sc2nc(C(=O)NS(=O)(=O)c3ccccc3Cl)cn12 [Example I-1-154] | 90 | 99 |  |  | 
11 | COc1ccc(Br)c(S(=O)(=O)NC(=O)c2cn3cc(C(F)(F)F)sc3n2)c1 [Example I-1-206] | 100 | 100 |  |  | 
12 | COc1ccc(Cl)c(S(=O)(=O)NC(=O)c2cn3cc(C(F)(F)F)sc3n2)c1 [Example I-1-1, N-[(2-chloro-5-methoxyphenyl)sulfonyl]-2-(trifluoromethyl)imidazo[2,1-b][1,3]thiazole-6-carboxamide] | 100 |  |  | 95 | 
13 | O=C(NS(=O)(=O)c1ccccc1Br)c1cn2cc(C(F)(F)C(F)(F)F)sc2n1 [Example I-1-227] | 100 |  | 100 |  | 
14 | Cc1ccc(C)c(S(=O)(=O)NC(=O)c2cn3cc(C(F)(F)F)sc3n2)c1 [Example I-1-9] | 100 |  | 100 |  | 
15 | Cc1ccc(Cl)cc1S(=O)(=O)NC(=O)c1cn2cc(C(F)(F)F)sc2n1 [Example I-1-8] | 100 | 95 |  |  | 
16 | O=C(NS(=O)(=O)c1ccccc1Cl)c1cn2cc(C(F)(F)F)sc2n1 [Example I-1-3] | 100 |  |  | 95 | 
17 | COc1ccc(Cl)c(S(=O)(=O)NC(=O)c2cn3c(C)c(C(F)(F)C(F)(F)F)sc3n2)c1 [Example I-1-251] | 100 |  | 98 |  | 
18 | Cc1ccc(C)c(S(=O)(=O)NC(=O)c2cn3cc(C(F)(F)C(F)(F)F)sc3n2)c1 [Example I-1-225] | 90 |  | 80 |  | 
19 | O=C(NS(=O)(=O)c1cc(Cl)ccc1Br)c1cn2cc(C(F)(F)F)sc2n1 [Example I-1-205] | 100 | 95 |  |  | 

Row | Structure (SMILES) | nematicidal activity on the basis of the percentage of gall formation (100% = no galls) (Meloidogyne incognita [1]) [%] | nematicidal activity on the basis of the percentage of gall formation (100% = no galls) (Meloidogyne incognita [2]; application rate 4 ppm) [%] | nematicidal activity on the basis of the percentage of gall formation (100% = no galls) (Meloidogyne incognita [2]; application rate 8 ppm) [%] | nematicidal activity on the basis of the percentage of gall formation (100% = no galls) (Meloidogyne incognita [2]; application rate 2 ppm) [%] | nematicidal activity on the basis of the percentage of gall formation (100% = no galls) (Meloidogyne incognita [2]; application rate 1 ppm) [%]
20 | COc1ccc(Br)c(S(=O)(=O)NC(=O)c2cn3cc(C(F)(F)C(F)(F)F)sc3n2)c1 [Example I-1-243] | 100 |  | 95 |  | 
21 | O=C(NS(=O)(=O)c1ccccc1F)c1cn2cc(C(F)(F)C(F)(F)F)sc2n1 [Example I-1-226] | 100 |  | 80 |  | 
22 | O=C(NS(=O)(=O)c1cc2c(cc1Cl)OC(F)(F)O2)c1cn2cc(C(F)(F)F)sc2n1 [Example I-1-12] | 100 |  | 95 |  | 
23 | O=C(NS(=O)(=O)c1cc(Br)ccc1Cl)c1cn2cc(C(F)(F)F)sc2n1 [Example I-1-209] | 100 | 90 |  |  | 
24 | CCOc1ccc(Cl)c(S(=O)(=O)NC(=O)c2cn3cc(C(F)(F)F)sc3n2)c1 [Example I-1-286] | 100 |  |  |  | 85
25 | O=C(NS(=O)(=O)c1ccccc1Cl)c1cn2cc(C(F)(F)C(F)(F)F)sc2n1 [Example I-1-142] | 100 | 80 |  |  | 
26 | Cc1c(C(F)(F)F)sc2nc(C(=O)NS(=O)(=O)c3cc(C(F)(F)F)ccc3Cl)cn12 [Example I-1-289] | 100 | 85 |  |  | 
27 | Cc1c(C(F)(F)C(F)(F)F)sc2nc(C(=O)NS(=O)(=O)c3c(Cl)cccc3Cl)cn12 [Example I-1-254] | 100 |  | 85 |  | 
28 | CC(C)Oc1ccc(Cl)c(S(=O)(=O)NC(=O)c2cn3cc(C(F)(F)F)sc3n2)c1 [Example I-1-208] | 100 |  |  |  | 90
29 | O=C(NS(=O)(=O)c1cc(C(F)(F)F)ccc1Br)c1cn2cc(C(F)(F)C(F)(F)F)sc2n1 [Example I-1-223] | 100 | 80 |  |  | 
30 | COc1ccc(Cl)c(S(=O)(=O)NC(=O)c2cn3cc(C(F)(F)C(F)(F)F)sc3n2)c1 [Example I-1-147] | 100 |  | 85 |  | 
31 | O=C(NS(=O)(=O)c1ccc(Cl)cc1)c1cn2cc(C(F)(F)C(F)(F)F)sc2n1 [Example I-1-144] | 90 |  |  |  | 
32 | Cc1ccc(OC(F)F)c(S(=O)(=O)NC(=O)c2cn3cc(C(F)(F)F)sc3n2)c1 [Example I-1-314] | 90 |  |  |  | 
33 | O=C(NS(=O)(=O)c1ccccc1OC(F)(F)F)c1cn2cc(C(F)(F)F)sc2n1 [Example I-1-281] | 90 |  |  |  | 
34 | O=C(NS(=O)(=O)c1cc(Cl)ccc1Cl)c1cn2cc(C(F)(F)F)sc2n1 [Example I-1-6] | 100 |  |  |  | 
35 | CCCOc1ccc(Cl)cc1S(=O)(=O)NC(=O)c1cn2cc(C(F)(F)F)sc2n1 [Example I-1-313] | 100 |  |  |  | 
36 | CC(=O)c1ccc(Cl)c(S(=O)(=O)NC(=O)c2cn3c(C)c(C(F)(F)F)sc3n2)c1 [Example I-1-302] | 100 |  |  |  | 
37 | O=C(NS(=O)(=O)c1cccc(Cl)c1Cl)c1cn2cc(C(F)(F)C(F)(F)F)sc2n1 [Example I-1-236] | 100 |  |  |  | 
38 | O=C(NS(=O)(=O)c1ccccc1OC(F)(F)F)c1cn2cc(C(F)(F)C(F)(F)F)sc2n1 [Example I-1-234] | 100 |  |  |  | 
